These results are taken from PubChem BioAssay (NCI).

Each structure is given as a SMILES string. Values joined by “and” are separate entries in the source; they are usually repeats but may differ in a detail not shown here. Identical values can stand only once.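 In this assay, cells in 96-well plates receive the compound at five concentrations for 48 hours. Endpoints are linearly interpolated between the surrounding concentrations. GI50 = concentration required for 50% inhibition of growth. TGI is the concentration that stops growth completely.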

Experiment in all cases: growth of human tumour cells (NCI), 48 h
For assay [1], the system named is DLD-1 colon.
Assay [2] relates to DMS 114 small cell lung.
In assay [3] the test system is DMS 273 small cell lung.
The test system of assay [4] is KM20L2 colon.
The subject of assay [5] is M19-MEL melanoma.
The test system of assay [6] is SNB-78 CNS.
Assay [7] deals with BT-549 breast.
Assay [8] deals with HOP-18 NSCLC.
Assay [9] has as its system MDA-N.

`N#CCC(=O)NC1C2CC3CC(C2)CC1C3` (centres undefined): the TGI in assay [1] is 48.9 µM; in assay [2] it was 30.5 µM; in [3], 48.2 µM; in assay [4], 33.6 µM; in assay [5], over 100 µM; in assay [6], 43 µM.
On to `Fc1ccc(C2SCc3nc4ccccc4n32)cc1Cl` (centres undefined), for which the TGI in assay [1] is over 100 µM; in [2] it was 57.4 µM; in assay [4], over 100 µM; in assay [5] it was 37.1 µM; in assay [6], over 100 µM.
In the case of `COC(=O)c1cc(C)c(C)c2c1NC(=O)CNC2=O`, the TGI in [1], in [2], in assay [3], in assay [4], in [5] and in assay [6] was over 100 µM in each case.
Turning to `CCc1ccc(Nc2ccc([N+](=O)[O-])cc2[N+](=O)[O-])cc1`, the TGI in assay [1], in [2], in assay [3], in assay [4], in assay [5] and in assay [6] was over 100 µM in each case.
As to `Nc1ncn(C2CC(O)C(CO)O2)c(=O)n1` (centres undefined), the TGI in [7] was over 178 µM; in assay [1] it was over 375 µM; in [2], over 375 µM; in assay [8] it was over 260 µM; in [4], over 375 µM; in [5], over 375 µM. Also, the TGI in [9] is 7.2 µM; in assay [6], over 375 µM.
`CS(=O)(=O)c1cc(=O)c2ccccc2s1`: the TGI in [7] was found to be 35.6 µM; in assay [1], 4.21 µM; in [2], 11.2 µM; in [3], 20.7 µM; in assay [4] it was 28.2 µM; in [5], 18.3 µM. Moreover, the figures for the TGI in [9] and in assay [6] were 16.2 µM and 14 µM, respectively.
For the compound `CC(C)CCCC(=O)CCCCCCC(=O)CCN(O)C(=O)C(N)CO` (centres undefined), the TGI in assay [7] stood at 34.5 µM; in [9], 49.4 µM.
With `COc1cc2c(c(OC)c1OC)C(=O)[C@@H]1c3ccc([N+](=O)[O-])cc3C(=O)N(CCCBr)[C@H]21`, in [7], the GI50 was 14.6 µM and the TGI came out at 55.9 µM.
On the same counts, the results for `Fc1ccc(-c2nn3ncccc3c2-c2ccnc(Nc3ccc4c(c3)OCCO4)n2)cc1` are 7.87 µM and 24.9 µM.
The like results for `O=C(/C=C\n1cnc(-c2cc(C(F)(F)F)cc(C(F)(F)F)c2)n1)NNc1cnccn1` were, in that order, 0.0385 µM and 2.82 µM.
With `CCCCN1CSC(=S)N(Cc2ccccc2)C1`, the TGI in assay [7] and in assay [9] was over 100 µM throughout.
For the compound `COc1cc2c3c(n(CCNCCCNCCn4c5c(c6cc(OC)c(OC)cc6c4=O)C(=O)c4ccccc4-5)c(=O)c2cc1OC)-c1ccccc1C3=O`, in assay [7], the GI50 is 2.87 µM and the TGI is over 100 µM.
The like results for `C/C(=N\Nc1ccc(Cl)cn1)c1ccccn1` were, in that order, 0.362 µM and over 76 µM.
With `COc1ccc2nc3cc(Cl)ccc3c(NCCN)c2c1`, in assay [7], the GI50 was 1.81 µM and the TGI was found to be 3.39 µM.
As for `COC(C(O)c1ccc2c(c1)OCO2)P(=O)(c1ccccc1)c1ccccc1` (centres undefined), the TGI in assay [1], in assay [2], in assay [3], in assay [5] and in [6] was over 100 µM each time.
With `CCN(CC)CCCC(C)Nc1cnc(C(=O)Nc2cccc3ccc(OC)nc23)cn1` (centres undefined), in [7], the GI50 is 1.95 µM and the TGI amounted to 4.47 µM.
Consider `CC(C)(C)c1ccc(O)c(CN(Cc2cc(C(C)(C)C)ccc2O)c2ccccc2)c1`, for which the TGI in [7] was 36.4 µM; in assay [9], 30.4 µM.
As to `C/C=C(\C)CC/C=C/CO[Si](C)(C)C(C)(C)C`, in [9], the TGI is over 100 µM.
As for `COC(=O)[C@H](Cc1c[nH]c2ccccc12)NC(=O)[C@@H](OC)[C@@H]1Cc2cc3cc(OC4CC(OC5CC(O)C(O)C(C)O5)C(O)C(C)O4)c(C)c(O)c3c(O)c2C(=O)[C@H]1OC1CC(OC2CC(OC3CC(C)(O)C(O)C(C)O3)C(O)C(C)O2)C(O)C(C)O1` (some centres undefined), in assay [7], the GI50 was 0.00527 µM and the TGI stood at 0.031 µM.
As to `COc1cc(NS(=O)(=O)c2ccc(-c3cnc(C4CC4)o3)cc2)ccc1F`, in assay [7], the GI50 was 2.02 µM and the TGI was determined as 20.3 µM.
On the same counts, the results for `COc1cc2c3c(n(C)c(=O)c2cc1OC)-c1cc2c(cc1/C3=C\CNCCCN)OCO2` are 1.91 µM and 5.22 µM.
The like results for `CCC(=O)c1c(C(F)(F)F)n([O-])c2ccc(C)cc2[n+]1=O` were, in that order, 1.35 µM and 5.43 µM.
Consider `NCCCn1c2c(c3ccc([N+](=O)[O-])cc3c1=O)C(=O)c1cc(Br)ccc1-2`, for which, in [7], the GI50 is 0.0314 µM and 0.0491 µM; the TGI was 0.893 µM.
Turning to `CCc1oc2ccccc2c1C(=O)c1cc(I)c(O)c(I)c1`, in assay [7], the GI50 is 2.79 µM and the TGI came to 13.9 µM.
On the same counts, the results for `COc1cc2c3c(n(CCCCOC(=O)C(Cl)(Cl)Cl)c(=O)c2cc1OC)-c1cc2c(cc1C3=O)OCO2` are 57.1 µM and over 100 µM.
Take `Cn1cnc([N+](=O)[O-])c1[Se]c1nc(N)nc2c1ncn2C1OC(CO)C(O)C1O` (centres undefined): the TGI in [7] and in [9] was over 100 µM in each case.
For `CCOC(=O)c1c(C)nc2c(c1N)/C(=C/c1ccc(OC)cc1)C(=O)N2Cc1ccc(F)cc1`, in assay [7], the GI50 is 0.169 µM and the TGI worked out at 0.365 µM.
The like results for `COC(=O)c1c(C)[nH]c(/C=C2\N=C(c3ccc[nH]3)C=C2OC)c1C` were, in that order, 0.199 µM and 3.04 µM.
For `COc1ccc(OC)c(C(=O)c2oc3ccc(Br)cc3c2N)c1`, in assay [7], the GI50 was 0.584 µM and the TGI turned out to be 21.1 µM.
The like results for `COC(=O)C12C3C4C1C1C2C3C41NC(=O)c1csc([C@@H](C[C@H](C(C)C)N(C)C(=O)[C@@H](NC(=O)[C@H]2CCCCN2C)C2CC2)OC(C)=O)n1` (some centres undefined) were, in that order, under 0.00333 µM and 4.1 µM.
